# Source: patent publication US12144795B2, “Cannabidiol compositions having modified cannabinoid profiles” (priority 2018, dated 2024)
# Assay: Quantitative thermodynamic solubility determination at ambient temperature, evaporated solids analyzed by XRPD
# Assay type: physicochemical
# Settings: for solubility: thermodynamic from solid, ambient temperature
# Procedure: A quantitative thermodynamic solubility determination was performed on crude cannabidiol obtained via Protocol 2 to aid in the selection of solvents for crystallization experiments. The clear solutions obtained from each solubility determination experiment were evaporated and the obtained solids were analyzed by XRPD.
# When the material precipitated as a solid, it was classified as Form A. However, in 11 experiments, the material obtained after evaporation was oil-like in appearance and could not be analyzed by XRPD. When no XRPD record was generated, the field was defined as “Not Applicable” (N/A).
structure (smiles),measurement,setting,value
"C=C(C)[C@@H]1CCC(C)=C[C@H]1c1c(O)cc(CCCCC)cc1O [crude cannabidiol, cannabidiol]",solubility,"organic solvent or mixture, 1,2-Dimethoxyethane",> 100 mg/mL
same,solubility,"organic solvent or mixture, 1-Propanol",> 100 mg/mL
same,solubility,"organic solvent or mixture, 1.4-Dioxane",> 100 mg/mL
same,solubility,"organic solvent or mixture, 2-Butanone",> 100 mg/mL
same,solubility,"organic solvent or mixture, 2-propanol",> 100 mg/mL
same,solubility,"organic solvent or mixture, Acetone",> 100 mg/mL
same,solubility,"organic solvent or mixture, Acetonitrile",> 100 mg/mL
same,solubility,"organic solvent or mixture, Anisole",> 100 mg/mL
same,solubility,"organic solvent or mixture, Chloroform",> 100 mg/mL
same,solubility,"organic solvent or mixture, Cumene",> 100 mg/mL
same,solubility,"organic solvent or mixture, Cyclohexane",> 100 mg/mL
same,solubility,"organic solvent or mixture, Dichloromethane",> 100 mg/mL
same,solubility,"organic solvent or mixture, Diethyl ether",> 100 mg/mL
same,solubility,"organic solvent or mixture, Ethanol",> 100 mg/mL
same,solubility,"organic solvent or mixture, Ethyl Acetate",> 100 mg/mL
same,solubility,"organic solvent or mixture, Ethyl Formate",> 100 mg/mL
same,solubility,"organic solvent or mixture, Heptane",64.6 mg/mL
same,solubility,"organic solvent or mixture, Isobutanol",> 100 mg/mL
same,solubility,"organic solvent or mixture, Isopropyl acetate",> 100 mg/mL
same,solubility,"organic solvent or mixture, Methanol",> 100 mg/mL
same,solubility,"organic solvent or mixture, Tert-Butyl methyl ether",> 100 mg/mL
same,solubility,"organic solvent or mixture, Tetrahydrofuran",> 100 mg/mL
same,solubility,"organic solvent or mixture, Toluene",> 100 mg/mL
same,solubility,"organic solvent or mixture, p-Xylene",> 100 mg/mL
same,XRPD,solid after evaporation of 1.4-Dioxane solution,Form A
same,XRPD,solid after evaporation of 2-Butanone solution,Form A
same,XRPD,solid after evaporation of Chloroform solution,Form A
same,XRPD,solid after evaporation of Cyclohexane solution,Form A
same,XRPD,solid after evaporation of Dichloromethane solution,Form A
same,XRPD,solid after evaporation of Diethyl ether solution,Form A
same,XRPD,solid after evaporation of Ethyl Acetate solution,Form A
same,XRPD,solid after evaporation of Ethyl Formate solution,Form A
same,XRPD,solid after evaporation of Heptane solution,Form A
same,XRPD,solid after evaporation of Isopropyl acetate solution,Form A
same,XRPD,solid after evaporation of Tert-Butyl methyl ether solution,Form A
same,XRPD,solid after evaporation of Tetrahydrofuran solution,Form A
same,XRPD,solid after evaporation of Toluene solution,Form A
same,XRPD,solid after evaporation of Water solution,Form A
same,solubility,Water,< 0.13 mg/mL
